In patent US9517993B2, “Antagonists of the toll-like receptor 1/2 complex” (THE REGENTS OF THE UNIVERSITY OF COLORADO, a body corporate, priority 2012, dated 2016):

Legend:
[1] = biological target: T1, TLR4 (Mus musculus, UniProt Q9JHF9+Q9QUK6); assay: RAW 264.7 nitric oxide TLR selectivity assay (LPS); format: cell-based; conditions: 10 ng/mL LPS
T1 construct: RAW 264.7 Cells Nitric Oxide TLR Selectivity Assay; endogenous in cells; host or cells: RAW 264.7
T1 sequence (Q9QUK6 26-835): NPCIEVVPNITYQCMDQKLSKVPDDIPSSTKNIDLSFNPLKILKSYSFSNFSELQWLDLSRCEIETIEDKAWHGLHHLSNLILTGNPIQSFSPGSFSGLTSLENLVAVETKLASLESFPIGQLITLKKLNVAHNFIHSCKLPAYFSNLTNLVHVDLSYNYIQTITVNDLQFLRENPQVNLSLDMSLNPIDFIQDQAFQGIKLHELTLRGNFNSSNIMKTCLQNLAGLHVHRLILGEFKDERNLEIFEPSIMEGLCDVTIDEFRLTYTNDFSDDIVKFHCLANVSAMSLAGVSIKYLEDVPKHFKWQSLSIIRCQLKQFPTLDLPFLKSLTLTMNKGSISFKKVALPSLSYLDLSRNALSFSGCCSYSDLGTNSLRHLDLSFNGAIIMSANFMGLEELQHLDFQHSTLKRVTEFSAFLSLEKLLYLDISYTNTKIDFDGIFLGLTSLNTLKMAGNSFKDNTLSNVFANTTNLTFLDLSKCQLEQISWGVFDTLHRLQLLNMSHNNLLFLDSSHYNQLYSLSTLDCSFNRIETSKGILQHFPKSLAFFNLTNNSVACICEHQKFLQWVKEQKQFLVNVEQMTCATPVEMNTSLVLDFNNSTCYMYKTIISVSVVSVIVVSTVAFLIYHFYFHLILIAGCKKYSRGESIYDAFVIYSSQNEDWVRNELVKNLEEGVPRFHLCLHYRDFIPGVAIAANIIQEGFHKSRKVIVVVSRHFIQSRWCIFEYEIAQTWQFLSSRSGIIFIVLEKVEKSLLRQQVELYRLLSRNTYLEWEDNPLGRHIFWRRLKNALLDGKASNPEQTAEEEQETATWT
T1 sequence (Q9JHF9 19-160): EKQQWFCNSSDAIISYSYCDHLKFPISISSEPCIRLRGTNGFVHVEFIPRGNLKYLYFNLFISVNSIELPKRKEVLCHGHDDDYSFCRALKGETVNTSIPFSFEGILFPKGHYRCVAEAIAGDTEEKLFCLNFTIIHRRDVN
Description: (§1) RAW 264.7 (Mouse leukaemic monocyte macrophage cell line) cells were grown in RPMI 1640 medium, supplemented with 10% FBS, penicillin (100 U/mL) and streptomycin ([…]). RAW cells were then planted in 96-well plates at 80,000 cells per well and grown for 24 h in the media descried previously at 37° C. in a 5% CO2 humidified incubator. After 24 h, non-adherent cells and media were removed and replaced with fresh unsupplemented RPMI 1640 medium. The adherent macrophages were treated with Pam3CSK4 (CAS No. 112208-00-1; a synthetic triacylated lipopeptide (LP) that mimics the acylated amino terminus of bacterial LPs) (200 ng/mL) (Invivogen, USA), an agonist of TLR1/2, and then added different concentrates of potential inhibitor. Two rows were only treated with Pam3CSK4 as control. […] The reaction was quenched by addition of 5 μL of a 3 M aqueous NaOH solution and the plate was read on Beckman Coulter DTX880 reader (Beckman Coulter, Calif., USA) with excitation at 365 nm and emission at 450 nm. The nitrite (a stable metabolite of nitric oxide) concentration was determined from a nitrite standard curve. The inhibition rate (%) of NO release was determined using the following formula: Inhibition (%)=[Pam3CSK4(OD450) […]]/[Pam3CSK4 (OD450)−Control (OD450)]×100. The IC50 values for both inhibition and cytotoxicity were determined graphically using software Origin v7.5. […]

[2] = biological target: T2, TLR7 (Mus musculus, UniProt P58681); assay: RAW 264.7 nitric oxide TLR selectivity assay (R848); format: cell-based; conditions: 100 nM R848
T2 construct: RAW 264.7 Cells Nitric Oxide TLR Selectivity Assay; endogenous in cells; host or cells: RAW 264.7
T2 sequence (P58681 27-1050): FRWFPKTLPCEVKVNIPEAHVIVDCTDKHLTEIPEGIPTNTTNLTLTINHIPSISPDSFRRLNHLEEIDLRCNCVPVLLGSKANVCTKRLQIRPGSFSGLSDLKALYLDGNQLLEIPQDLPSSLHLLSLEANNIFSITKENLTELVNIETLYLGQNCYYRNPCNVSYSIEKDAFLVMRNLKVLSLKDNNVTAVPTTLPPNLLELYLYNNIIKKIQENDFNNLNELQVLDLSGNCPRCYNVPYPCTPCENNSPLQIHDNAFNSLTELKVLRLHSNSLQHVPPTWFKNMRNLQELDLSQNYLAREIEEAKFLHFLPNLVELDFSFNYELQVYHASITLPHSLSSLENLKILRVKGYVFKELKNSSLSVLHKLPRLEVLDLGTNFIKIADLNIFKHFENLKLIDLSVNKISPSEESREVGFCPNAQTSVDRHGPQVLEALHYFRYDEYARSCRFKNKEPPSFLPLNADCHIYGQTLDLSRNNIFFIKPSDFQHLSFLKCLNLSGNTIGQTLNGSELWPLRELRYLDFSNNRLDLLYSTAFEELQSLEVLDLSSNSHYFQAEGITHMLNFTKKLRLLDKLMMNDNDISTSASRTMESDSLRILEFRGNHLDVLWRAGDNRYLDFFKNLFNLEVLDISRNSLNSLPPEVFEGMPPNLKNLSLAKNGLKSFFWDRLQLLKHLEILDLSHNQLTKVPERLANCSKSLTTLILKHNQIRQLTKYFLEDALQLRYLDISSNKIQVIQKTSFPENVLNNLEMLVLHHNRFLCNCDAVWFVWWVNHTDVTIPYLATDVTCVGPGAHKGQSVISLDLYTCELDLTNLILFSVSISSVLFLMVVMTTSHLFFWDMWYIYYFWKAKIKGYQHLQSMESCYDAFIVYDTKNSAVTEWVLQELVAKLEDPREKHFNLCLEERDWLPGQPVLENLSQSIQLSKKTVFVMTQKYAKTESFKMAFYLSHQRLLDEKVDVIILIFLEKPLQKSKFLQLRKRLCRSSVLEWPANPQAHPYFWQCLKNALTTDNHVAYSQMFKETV
Description: as §1

Row | inhibition of TLR4 signaling ([1]; 3 μM compound) | inhibition of TLR7 signaling ([2]; 3 μM compound) | inhibition of TLR4 signaling ([1]; 0.5 μM compound) | inhibition of TLR7 signaling ([2]; 0.5 μM compound) | SMILES
1 | no other homologous TLRs | no other homologous TLRs | – | – | O=c1c(O)cccc2cc(O)c(O)c(O)c12 [NCI35676, purpurogallin, reference compound]
2 | – | – | without affecting other TLRs | without affecting other TLRs | CCCCCCOC(=O)c1cc(O)c(=O)c2c(O)c(O)c(OC)cc2c1 [compound 17, Hexyl 3,4,6-trihydroxy-2-methoxy-5-oxo-5H-benzo[7]annulene-8-carboxylate]
